The CheMixHub ionic liquid set

Test: xn = mol fraction of the nth substance listed

CCCCCC[N+](CC)(CC)CC.O=S(=O)([N-]S(=O)(=O)C(F)(F)F)C(F)(F)F + CC(C)O
100 kPa
Settings	viscosity [mPa·s]
293.15 K, x2 = 0.096	160
298.15 K, x2 = 0.2045	95.8
298.15 K, x2 = 0.3101	68.4
298.15 K, x2 = 0.4987	35.9
303.15 K, x2 = 0.3101	61.4
308.15 K, x2 = 0.4056	35.1
308.15 K, x2 = 0.4987	25.5
308.15 K, x2 = 0.5916	18
308.15 K, x2 = 0.8015	5.65
308.15 K, x2 = 0.9193	2.98
313.15 K, x2 = 0.096	69.9
313.15 K, x2 = 0.5916	16

CCCC[n+]1cccc(C)c1.O=S(=O)([N-]S(=O)(=O)C(F)(F)F)C(F)(F)F + CC(C)O
Settings	electrical conductivity [S/m]
298.15 K, 101.3 kPa, x2 = 0.3381	0.642

CC[n+]1ccn(C)c1.O=S(=O)([O-])O + CC(C)[C@H](N)C(=O)O + O
viscosity [mPa·s], 100 kPa
Settings	293.15 K	298.15 K	303.15 K	308.15 K	313.15 K
x2 = 0, x1 = 0.0005421	1.046	0.929	0.824	0.75	0.678
x2 = 0, x1 = 0.0009056	1.068	0.949	0.843	0.759	0.684
x2 = 0, x1 = 0.001263	1.073	0.966	0.866	0.78	0.697
x2 = 0.0003674, x1 = 0.0009053	1.09	0.958	0.851	0.767	0.691
x2 = 0.0003913, x1 = 0.0005419	1.068	0.938	0.832	0.758	0.686
x2 = 0.0003924, x1 = 0.001263	1.096	0.975	0.875	0.787	0.705
x2 = 0.0007372, x1 = 0.001262	1.117	0.983	0.882	0.794	0.711
x2 = 0.000749, x1 = 0.0009049	1.112	0.966	0.859	0.774	0.698
x2 = 0.0007642, x1 = 0.0005417	1.09	0.947	0.84	0.765	0.693
x2 = 0.001083, x1 = 0.0005415	1.108	0.954	0.847	0.771	0.699
x2 = 0.001089, x1 = 0.0009046	1.132	0.974	0.866	0.781	0.704
x2 = 0.001118, x1 = 0.001262	1.139	0.992	0.89	0.802	0.718
x2 = 0.001457, x1 = 0.001262	1.159	1	0.897	0.808	0.725
x2 = 0.001475, x1 = 0.0009042	1.155	0.983	0.874	0.788	0.711
x2 = 0.001477, x1 = 0.0005413	1.131	0.963	0.855	0.779	0.706
x2 = 0.001795, x1 = 0.0005411	1.149	0.97	0.861	0.785	0.712
x2 = 0.001812, x1 = 0.0009039	1.175	0.991	0.881	0.795	0.717
x2 = 0.001817, x1 = 0.001261	1.18	1.008	0.905	0.816	0.731
x2 = 0.002249, x1 = 0.0005409	1.176	0.98	0.871	0.794	0.721
x2 = 0.002256, x1 = 0.001261	1.206	1.018	0.915	0.824	0.739
x2 = 0.002283, x1 = 0.0009035	1.203	1.001	0.891	0.804	0.726

CC(CC(C)(C)C)CP(=O)([O-])CC(C)CC(C)(C)C.CCCCCCCCCCCCCC[P+](CCCCCC)(CCCCCC)CCCCCC + CCC(=O)O + O
298.15 K, 100 kPa
Settings	viscosity [mPa·s]
x2 = 0.02049, x1 = 0.1002	133
x2 = 0.02069, x1 = 0.09762	145
x2 = 0.04451, x1 = 0.115	139
x2 = 0.231, x1 = 0.1669	147
x2 = 0.3019, x1 = 0.1781	150
x2 = 0.3925, x1 = 0.1645	145
x2 = 0.4515, x1 = 0.1697	133
x2 = 0.4652, x1 = 0.1675	127
x2 = 0.4969, x1 = 0.154	133
x2 = 0.5235, x1 = 0.1181	81
x2 = 0.5255, x1 = 0.1239	85
x2 = 0.5271, x1 = 0.1398	114
x2 = 0.5377, x1 = 0.108	60
x2 = 0.571, x1 = 0.09705	52

CCCC[n+]1ccn(C)c1.F[P-](F)(F)(F)(F)F + CCC(C)=O
298.15 K, 101.3 kPa
Settings	viscosity [mPa·s]
x2 = 0.3016	43.3
x2 = 0.4024	23.55
x2 = 0.4485	18.18
x2 = 0.6517	5.15

CC#N + CCCCCCCC(=O)[O-].c1c[nH+]c[nH]1
101.3 kPa, x1 = 1
Settings	viscosity [mPa·s]
298.15 K	0.333
323.15 K	0.223

CC(CC(C)(C)C)CP(=O)([O-])CC(C)CC(C)(C)C.CCCCCCCCCCCCCC[P+](CCCCCC)(CCCCCC)CCCCCC + CCCCCCCCCCCC
101 kPa
Settings	viscosity [mPa·s]
298.15 K, x1 = 0.4684	82
303.15 K, x1 = 1	757
308.15 K, x1 = 0.4684	56.3
318.15 K, x1 = 0.6647	103
338.15 K, x1 = 0.6647	50.4
343.15 K, x1 = 0.6647	43.4
343.15 K, x1 = 1	111

CC(CC(C)(C)C)CP(=O)([O-])CC(C)CC(C)(C)C.CCCCCCCCCCCCCC[P+](CCCCCC)(CCCCCC)CCCCCC + CCCCCCCCCCCC + O
Settings	viscosity [mPa·s]
303.15 K, 100 kPa, x2 = 0, x3 = 0.8861	119.5

CCCCCCCCCCCCCCCCCC[n+]1ccn(C)c1.O=S(=O)([N-]S(=O)(=O)C(F)(F)F)C(F)(F)F + CCCCCCCCCCCCCCCCn1cc[n+](C)c1.O=S(=O)([N-]S(=O)(=O)C(F)(F)F)C(F)(F)F
Settings	viscosity [mPa·s]
323 K, 101 kPa, x2 = 0.621	89.5

CCCCCCCCCCCCCCCCCC[n+]1ccn(C)c1.O=S(=O)([N-]S(=O)(=O)C(F)(F)F)C(F)(F)F + CCCCCCCCCCCCCC[n+]1ccn(C)c1.O=S(=O)([N-]S(=O)(=O)C(F)(F)F)C(F)(F)F
Settings	viscosity [mPa·s]
323 K, 101 kPa, x2 = 0.7675	62.9

CCCCCCCCCCCCCCCC[n+]1ccn(C)c1.[Cl-] + CCCCCCCCCCCC[N+](C)(C)C.[Br-] + O
100 kPa, frequency 0.002 MHz
Settings	electrical conductivity [S/m]
303.15 K, x1 = 5.946e-05, x2 = 1.478e-05	0.025
303.15 K, x1 = 7.207e-05, x2 = 1.802e-05	0.0286
303.15 K, x1 = 9.712e-05, x2 = 2.433e-05	0.0355
313.15 K, x1 = 6.13e-06, x2 = 2.433e-05	0.0202
313.15 K, x1 = 7.75e-06, x2 = 1.802e-05	0.0184
313.15 K, x1 = 2.09e-05, x2 = 2.34e-06	0.0146
323.15 K, x1 = 9.19e-06, x2 = 2.126e-05	0.0259

CCCC[n+]1ccn(C)c1.O=S(=O)([N-]S(=O)(=O)C(F)(F)F)C(F)(F)F + CCCCCCCCCO
Settings	viscosity [mPa·s]
298 K, 100 kPa, x1 = 1	49.7

CCCC[n+]1ccn(C)c1.O=S(=O)([N-]S(=O)(=O)C(F)(F)F)C(F)(F)F + CCCCCCCCO
Settings	viscosity [mPa·s]
298 K, 100 kPa, x1 = 1	49.7

CCCCCCO + CCCCCCCC[n+]1ccc2ccccc2c1.O=S(=O)([N-]S(=O)(=O)C(F)(F)F)C(F)(F)F
Settings	viscosity [mPa·s]
328.15 K, 101 kPa, x1 = 1	1.97

CN(C)C=O + CCCCCCCC[n+]1ccn(C)c1.F[P-](F)(F)(F)(F)F
101 kPa, x2 = 0
Settings	viscosity [mPa·s]
293.15 K	0.881
303.15 K	0.771
313.15 K	0.668
323.15 K	0.605
333.15 K	0.553
353.15 K	0.479
363.15 K	0.447
